Values belong to the compound of their own block, whether it stands above or below them. The source made the active and inactive calls. No cut-off for these calls is given here.
Legend:
[1] = target: T1, Protein-serine/threonine kinase (Sus scrofa) (UniProt F1RUX3); experiment: Inhibition of GRK2 in porcine trabecular meshwork cells assessed as F-actin depolymerization at 50 uM after 20 mins by Alexa-fluor 488-labelled phalloidin/DAPI staining assay relative to control
T1 sequence (whole entry): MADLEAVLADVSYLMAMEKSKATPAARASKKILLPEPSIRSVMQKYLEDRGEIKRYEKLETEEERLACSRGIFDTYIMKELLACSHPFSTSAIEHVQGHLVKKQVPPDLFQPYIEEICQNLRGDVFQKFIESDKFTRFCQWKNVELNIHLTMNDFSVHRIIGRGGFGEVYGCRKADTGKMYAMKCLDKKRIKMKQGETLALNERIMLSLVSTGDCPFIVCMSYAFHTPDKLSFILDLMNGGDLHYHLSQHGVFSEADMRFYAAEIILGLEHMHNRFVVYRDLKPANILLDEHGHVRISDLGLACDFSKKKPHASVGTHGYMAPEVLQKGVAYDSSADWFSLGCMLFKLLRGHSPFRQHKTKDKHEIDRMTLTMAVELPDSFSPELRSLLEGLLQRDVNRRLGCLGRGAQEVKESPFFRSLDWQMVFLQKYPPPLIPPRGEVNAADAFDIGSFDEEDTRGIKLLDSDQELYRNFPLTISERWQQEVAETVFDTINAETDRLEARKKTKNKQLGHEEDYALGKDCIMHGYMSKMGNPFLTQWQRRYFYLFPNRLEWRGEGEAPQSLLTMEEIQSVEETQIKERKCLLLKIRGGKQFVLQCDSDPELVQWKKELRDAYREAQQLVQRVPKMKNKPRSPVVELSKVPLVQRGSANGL

[2] = target: T2, Beta-adrenergic receptor kinase 1 (Homo sapiens) (UniProt P25098); experiment: Inhibition of GRK2 in HEK293 cells overexpressing beta 2 adrenergic receptor assessed as increase in c-AMP accumulation in presence of isoproterenol; type: cell-based
T2 sequence (whole entry): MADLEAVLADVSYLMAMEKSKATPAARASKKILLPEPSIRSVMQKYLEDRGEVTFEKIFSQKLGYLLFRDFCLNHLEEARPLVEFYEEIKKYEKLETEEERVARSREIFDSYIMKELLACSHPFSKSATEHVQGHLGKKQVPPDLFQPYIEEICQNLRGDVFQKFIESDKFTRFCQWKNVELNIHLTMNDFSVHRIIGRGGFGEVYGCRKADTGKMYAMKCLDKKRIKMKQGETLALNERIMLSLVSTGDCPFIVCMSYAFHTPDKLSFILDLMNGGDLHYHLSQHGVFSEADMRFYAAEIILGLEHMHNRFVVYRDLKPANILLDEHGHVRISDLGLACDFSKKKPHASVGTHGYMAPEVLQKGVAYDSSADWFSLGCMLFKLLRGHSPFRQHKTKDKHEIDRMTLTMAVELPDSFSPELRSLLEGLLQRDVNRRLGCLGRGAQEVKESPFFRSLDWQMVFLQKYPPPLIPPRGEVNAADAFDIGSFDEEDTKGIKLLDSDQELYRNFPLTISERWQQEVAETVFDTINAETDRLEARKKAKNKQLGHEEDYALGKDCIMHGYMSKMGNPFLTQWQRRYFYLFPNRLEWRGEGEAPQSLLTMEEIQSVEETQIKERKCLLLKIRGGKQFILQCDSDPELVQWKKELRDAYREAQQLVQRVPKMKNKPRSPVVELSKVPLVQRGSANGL

Felis catus [3] = experiment: Antiglaucoma activity in cat assessed as decrease of ocular irritation administered topically; type: functional, organism-based; conditions: Eye
Felis catus [4] = experiment: Antiglaucoma activity in cat assessed as decrease of hyperemia administered topically; type: functional, organism-based
Felis catus [5] = experiment: Antiglaucoma activity in cat assessed as decrease of redness administered topically; type: functional, organism-based
[6] = target: T3, Beta-adrenergic receptor kinase 1 (Homo sapiens, UniProt P25098); experiment: Inhibition of human GRK2 after 90 to 120 mins by Kinase-Glo assay
T3 sequence (P25098 whole entry): T2 sequence (whole entry)

Felis catus [7] = experiment: Antiglaucoma activity in cat assessed as decrease of dry eye syndrome administered topically twice per day on eye; type: functional, organism-based
Felis catus [8] = experiment: Antiglaucoma activity in cat assessed as decrease of allergic symptoms administered topically twice per day on eye; type: functional, organism-based
[9] = target: G protein-coupled receptor kinase 6 (Homo sapiens, UniProt P43250); experiment: Inhibition of GRK6 (unknown origin) after 90 to 120 mins by Kinase-Glo assay
Felis catus [10] = experiment: Antiglaucoma activity in cat assessed as decrease in intraocular pressure administered topically twice per day on eye measured after 1 to 23 hrs by pneumatonometer; type: functional, organism-based
[11] = target: G protein-coupled receptor kinase 5 (Homo sapiens, UniProt P34947); experiment: Inhibition of GRK5 (unknown origin) after 90 to 120 mins by Kinase-Glo assay
Felis catus [12] = experiment: Antiglaucoma activity in cat assessed as decrease in intraocular pressure administered topically 4 times per day on eye measured after 1 to 23 hrs by pneumatonometer; type: functional, organism-based

Chain of G protein-coupled receptor kinase 6 (P43250 whole entry): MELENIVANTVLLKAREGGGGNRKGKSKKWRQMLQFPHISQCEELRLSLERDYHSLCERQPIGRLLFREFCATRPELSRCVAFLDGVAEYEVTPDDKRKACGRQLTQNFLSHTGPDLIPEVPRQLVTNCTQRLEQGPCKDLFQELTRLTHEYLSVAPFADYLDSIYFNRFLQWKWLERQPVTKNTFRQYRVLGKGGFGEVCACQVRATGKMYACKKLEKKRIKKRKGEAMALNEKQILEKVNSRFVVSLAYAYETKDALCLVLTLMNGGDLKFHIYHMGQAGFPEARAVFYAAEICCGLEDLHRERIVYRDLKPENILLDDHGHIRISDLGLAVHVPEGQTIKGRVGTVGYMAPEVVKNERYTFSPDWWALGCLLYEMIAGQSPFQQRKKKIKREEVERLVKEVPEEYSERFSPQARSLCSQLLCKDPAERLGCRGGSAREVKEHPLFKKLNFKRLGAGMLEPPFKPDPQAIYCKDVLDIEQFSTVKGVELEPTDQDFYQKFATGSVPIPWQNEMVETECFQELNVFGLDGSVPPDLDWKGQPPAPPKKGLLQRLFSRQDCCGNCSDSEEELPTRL
Chain of G protein-coupled receptor kinase 5 (P34947 whole entry): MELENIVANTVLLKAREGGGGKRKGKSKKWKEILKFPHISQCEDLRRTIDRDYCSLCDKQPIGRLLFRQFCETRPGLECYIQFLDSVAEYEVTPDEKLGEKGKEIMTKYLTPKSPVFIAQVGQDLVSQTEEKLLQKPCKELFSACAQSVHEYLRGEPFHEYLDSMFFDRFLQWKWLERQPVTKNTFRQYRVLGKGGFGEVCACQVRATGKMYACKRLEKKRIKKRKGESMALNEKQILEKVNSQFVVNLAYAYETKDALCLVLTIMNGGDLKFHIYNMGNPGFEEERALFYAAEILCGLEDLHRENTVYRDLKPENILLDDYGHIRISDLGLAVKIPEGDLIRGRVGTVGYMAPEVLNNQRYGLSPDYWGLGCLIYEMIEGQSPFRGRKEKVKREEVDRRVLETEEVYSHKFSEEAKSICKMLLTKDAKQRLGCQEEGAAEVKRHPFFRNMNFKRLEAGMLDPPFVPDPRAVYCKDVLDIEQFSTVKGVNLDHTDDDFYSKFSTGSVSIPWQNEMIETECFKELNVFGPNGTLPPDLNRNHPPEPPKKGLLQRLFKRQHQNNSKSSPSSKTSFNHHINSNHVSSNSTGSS

- GRK2 inhibition activity call (active/not active) [1]: inactive
Compound: COc1ccc(Oc2cccc(NCC(=O)NN=Cc3ccncc3)c2)cc1 (mixture of isomers)

- inhibition [2]: Active
Compound: NC(=O)c1cccc(NCC(=O)N/N=C/c2ccncc2)c1
- Activity (Felis catus [3]): Active
- Activity (Felis catus [4]): Active
- Activity (Felis catus [5]): Active

- Ki [6]: > 10 µM
Compound: CCc1cccc(NCC(=O)N/N=C/c2c(Cl)cncc2Cl)c1

Compound: Cc1ccc(Oc2cccc(NCC(=O)N/N=C/c3ccncc3)c2)cc1
- Activity (Felis catus [7]): Active
- Activity (Felis catus [8]): Active

- GRK2 inhibition activity call (active/not active) [1]: Active
Compound: O=C(CNc1cccc(C(=O)Nc2cccnc2)c1)N/N=C/c1ccncc1

- Ki [9]: > 10 µM
Compound: O=C(CNc1cccc(OCc2ccccc2)c1)N/N=C/c1ccncc1

Compound: NC(=O)c1ccc(NCC(=O)N/N=C/c2c(Cl)cncc2Cl)cc1
- Activity (Felis catus [10]): Active

- GRK2 inhibition activity call (active/not active) [1]: inactive
Compound: COc1cc(/C=N/NC(=O)CNc2cccc(Cl)c2)nc(OC)n1

- GRK2 inhibition activity call (active/not active) [1]: inactive
Compound: CNC(=O)c1cccc(NCC(=O)N/N=C/c2c(Cl)cncc2Cl)c1

- GRK2 inhibition activity call (active/not active) [1]: inactive
Compound: O=C(CNc1cccc(C(=O)NCCN2CCOCC2)c1)N/N=C/c1c(Cl)cncc1Cl

- GRK2 inhibition activity call (active/not active) [1]: inactive
Compound: O=C(CNc1ccc(Oc2ccccc2)cc1)N/N=C/c1c(Cl)cncc1Cl

- GRK2 inhibition activity call (active/not active) [1]: inactive
Compound: C/C(=N\NC(=O)CNc1cccc(C(=O)Nc2ccccc2)c1)c1ccncc1

- Ki [11]: > 10 µM
- GRK2 inhibition activity call (active/not active) [1]: Active
Compound: O=C(CNc1cccc(C(=O)Nc2ccccc2)c1)N/N=C/c1ccncc1

- Ki [9]: > 10 µM
- GRK2 inhibition activity call (active/not active) [1]: Active
Compound: O=C(CNc1cccc(C(=O)Nc2ccccc2)c1)N/N=C/c1c(Cl)cncc1Cl

Compound: O=C(CNc1cccc(C(=O)NCCN2CCOCC2)c1)N/N=C/c1ccncc1
- Activity (Felis catus [12]): Active

Reference: ChEMBL document CHEMBL3727367, “Hydrazide compounds” (2007)
